The target of assay [1] is T1, STING (stimulator of interferon genes) (Homo sapiens, UniProt Q86WV6). The experiment in a line: SPR (Biacore T200); also carnosol-sepharose pull-down. Set-up: gene STING1; purified human STING protein (TP308418, OriGene). In kind it is binding. For orientation: Surface plasmon resonance follows binding to a sensor surface in real time, without labels.
For assay [2], the target named is T1, STING (stimulator of interferon genes). Put plainly: SPR (Biacore T200); also MST (KD […]) and CA-sepharose pull-down competed by free CA. Type of assay: binding. Also noted: gene STING1; purified soluble human STING protein (TP308418, OriGene).

As usually defined, the Kd is the free concentration of one partner at which half of the binding sites on the other are occupied at equilibrium, for simple one-to-one binding. Low values mean a tighter complex, high ones a looser complex.

T1 sequence (Q86WV6 whole entry): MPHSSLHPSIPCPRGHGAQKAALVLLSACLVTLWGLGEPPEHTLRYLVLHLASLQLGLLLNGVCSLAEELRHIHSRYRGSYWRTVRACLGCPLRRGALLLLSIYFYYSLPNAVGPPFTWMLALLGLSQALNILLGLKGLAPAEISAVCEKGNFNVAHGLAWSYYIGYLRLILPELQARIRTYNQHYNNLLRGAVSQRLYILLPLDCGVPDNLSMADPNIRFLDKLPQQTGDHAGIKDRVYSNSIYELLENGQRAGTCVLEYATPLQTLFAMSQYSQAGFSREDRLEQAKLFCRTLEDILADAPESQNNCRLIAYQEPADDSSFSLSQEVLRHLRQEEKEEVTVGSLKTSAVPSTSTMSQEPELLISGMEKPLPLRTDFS

As for `CC(C)c1cc2c(c(O)c1O)[C@@]13CCCC(C)(C)[C@@H]1C[C@@H]2OC3=O` [carnosol], in assay [1], the Kd was determined as 1070 nM.

`CC(C)c1cc2c(c(O)c1O)[C@@]1(C(=O)O)CCCC(C)(C)[C@@H]1CC2` [CA, carnosic acid]: the Kd in assay [2] was 3170 nM.

These data come from PMC11984877, “Carnosic Acid Directly Targets STING C‐Terminal Tail to Improve STING‐Mediated Inflammatory Diseases” (Advanced Science, 2025).
